Measured values taken from patent US10710951B2, “Pharmaceutical composition containing verbenone derivative for treating or preventing neurodegenerative disease” (KOREA UNIVERSITY RESEARCH AND BUSINESS FOUNDATION, priority 2012, dated 2020).

Legend:
cortical neurons [1] = test: Oxygen-glucose deprivation (OGD)/reoxygenation neuronal injury, LDH release; format: cell-based; settings: rat cortical neurons, FIG. 1
Method: (§1) Cortical neurons (5×10^5 cells/ml) were isolated from fetal SD rats (16-17 days). Specifically, brain cortex was cut, and cells were isolated from the tissue by repeated trituration using a Pasteur pipette in buffer (Hanks' Balanced Salt Solution, HBSS). The cell suspension (1.8×10^3 cells/mm^2) was dispensed on a plate pretreated with poly-D-lysine ([…])/laminin ([…]). The cells were placed in 10% FBS-containing NBM medium, and incubated in a […]/5% CO2 atmosphere at 37° C. After 15-16 days of the incubation, the experiment was performed.
In order to induce hypoxic-ischemic symptoms in vitro, the incubated cells were placed in an anoxic chamber (partial oxygen pressure <2 mmHg). The cells were incubated glucose-free DMEM while being bubbled with an anaerobic gas mixture (95% N2 and 5% CO2) for 30 minutes to remove residual oxygen, and were incubated at 37° C. for 90 minutes for oxygen deprivation. After 90 minutes, the exposed solution was replaced with 25 mmol/L glucose-containing DMEM medium to stop the OGD reaction, and the cells were restored to normal oxygen conditions. Control cells not exposed to OGD were incubated in glucose (25 mmol/L)-containing DMEM medium provided with an aerobic gas mixture (95% air and 5% CO2). The cells were treated with each sample 30 minutes before, and during the entire period of OGD/re-oxygenation.
(§2) In order to measure cell injury or cell death, the amount of LDH released into the medium was measured using a cell viability measurement kit (Sigma-Aldrich, St. Louis, Mo.). Cell viability was expressed as the percentage of LDH relative to the total cellular LDH level measured in sister cultures lysed by freezing-thawing after the experiment.

cortical neurons [2] = test: NMDA-induced excitotoxicity, LDH release; format: cell-based, SD rats; set-up: dose or concentration left out as unconfirmed; settings: cultured cortical neuronal cells; sample 30 min before NMDA; lower than MK-801; FIG. 2
Method: as §1
After incubation on the plate for 15-18 days, the cortical neurons were exposed to NMDA ([…]) in a solution (Mg^2+-free Earle's balanced salt solution (EBSS); containing 1.8 mM CaCl2 and 10 mM glycine) for 10 minutes. After exposure, the cells were washed with MgSO4-containing EBSS solution, and incubated in 25 mmol/L glucose-containing DMEM medium in a 5% CO2 incubator at 37° C. 30 Minutes before treatment with NMDA, the cells were treated with each sample […].
as §2

[3] = DPPH assay (ability to scavenge nitrogen radicals); set-up: DPPH assay % inhibition: concentration or dose not given beside the values; settings: relative to vitamin C (Equation 1)
Method: The samples were mixed with DPPH (23.6 μg/ml, in ethanol), and incubated in dark at 37° C. for 30 minutes. The DPPH absorbance reduced by each sample was measured at 517 nm. Vitamin C (Sigma-Aldrich, St. Louis, Mo.) was used as a control, and the DPPH inhibition value (%) was calculated using the following equation: Scavenging activity (%)=[Absmax(Vit.C)−Abssample]/[Absmax(Vit.C)−Absmin(Vit.C)]×100. Equation 1
(§3) The antioxidant activities of the verbenone derivatives of the present invention were measured by the following two different chemical reactions: (1) a single electron transfer-based assay that is a […] [DPPH] assay that measures a decrease in DPPH acting as a free radical generator and a termination probe; and (2) a hydrogen atom transfer assay that is an oxygen radical absorbance capacity [[…]] assay that measures the competitive reaction kinetics of a peroxyl radical generator (AAPH; 2,2′-azobis-(2-methylpropionamide)-dihydrochloride) and each sample acting as an antioxidant for oxidizable fluorescent probe (fluorescein).

[4] = Oxygen radical absorbance capacity (ORAC) assay; set-up: ORAC assay TE25 (trolox equivalents): dose or concentration left out as unconfirmed; settings: for ORAC assay TE25 (trolox equivalents): net AUC sample / net AUC trolox
Method: An ORAC assay was performed as disclosed in the literature (Huang, D. et al., J. Agric. Food Chem., 53, 1841-56, 2005).
AAPH (60 mM) and fluorescein (50 nM) were prepared in buffer (75 mM phosphate buffer, pH7.4) without a sample or a sample or a standard (Trolox). Each of the samples and the standard was suspended in a solution of 7% RMCD (randomly methylated beta-cyclodextrin) in 50% acetone. RMCD was used to increase the solubility of oil-soluble samples. Each sample was sufficiently mixed with fluorescein solution (66 nM, 190 μl) by shaking for 5 seconds. After incubation at 37° C. for 10 minutes, AAPH (500 mM, 30 μl) was quickly added to each sample, and a decrease in the fluorescence was measured using a fluorescence microplate reader (Ex=485 nm, Em=530 nm; SpectraMax GeminiEM, Molecular Devices, Sunnyvale, Calif.) at 37° C. at 5-min intervals for 9 hours. To quantify the activity of scavenging peroxyl radicals, AUC (area-under-the-curve) was calculated according to the following equation 2, and net AUC was calculated according to the following equation 3, and the TE (trolox equivalents) of each sample was calculated according to the following equation 4 based on a standard curve of net AUC plotted according to an increase in trolox concentration. AUC=(0.5+f1/f0+f2/f0+f3/f0+ . . . +fn−2/f0+fn−1/f0+fn/f0)×5, Equation 2
wherein f0 is the first fluorescence at 0 min and time I. Net AUC=AUCsample−AUCblank. Equation 3 TE(trolox equivalents) of each sample=[netAUCsample […]]/[net AUCtrolox […]]. Equation 4
as §3

Structure (SMILES) | neuronal injury induced by OGD (LDH release) (cortical neurons [1]; OGD/reoxygenation, comparable to MK801) | cytotoxicity (cortical neurons [1]) | NMDA-induced neuronal injury (cortical neurons [2]) | DPPH assay % inhibition [3] [%] | ORAC assay Net AUC [4] | ORAC assay TE25 (trolox equivalents) [4]
CC1(C)[C@@H]2C[C@H]1C(C=Cc1ccc(O)cc1)=CC2=O [Compound 3a, (1S,5R)-4-(4-hydroxystyryl)-6,6-dimethylbicyclo[3.1.1]hept-3-en-2-one] | significantly reduced neuronal injury | showed no cytotoxicity | significantly reduced NMDA-induced neuronal injury | 19.11 ± 0.67 | 153.98 ± 1.68 | 3.43 ± 0.04
COc1cc(O)ccc1C=CC1=CC(=O)[C@H]2C[C@@H]1C2(C)C [Compound 3b, (1S,5R)-4-(4-hydroxy-2-methoxystyryl)-6,6-dimethylbicyclo[3.1.1]hept-3-en-2-one] |  |  |  | 38.13 ± 5.62 | 106.48 ± 1.89 | 2.37 ± 0.04
CC1(C)[C@@H]2C[C@H]1C(C=Cc1ccc(O)c(Br)c1)=CC2=O [Compound 3d, (1S,5R)-4-(3-bromo-4-hydroxystyryl)-6,6-dimethylbicyclo[3.1.1]hept-3-en-2-one] |  |  |  | 29.45 ± 2.41 | 168.12 ± 5.24 | 3.74 ± 0.12
COc1cc(O)cc(OC)c1C=CC1=CC(=O)[C@H]2C[C@@H]1C2(C)C [Compound 3e, (1S,5R)-4-(4-hydroxy-2,6-dimethoxystyryl)-6,6-dimethylbicyclo[3.1.1]hept-3-en-2-one] |  |  |  | 55.80 ± 7.52 | 166.26 ± 6.05 | 3.70 ± 0.13
CC1(C)[C@@H]2C[C@H]1C(C=Cc1cccc(O)c1)=CC2=O [Compound 3g, (1S,5R)-4-(3-hydroxystyryl)-6,6-dimethylbicyclo[3.1.1]hept-3-en-2-one] |  |  |  |  | 73.74 ± 3.86 | 1.64 ± 0.09
CC1(C)[C@@H]2C[C@H]1C(C=Cc1ccccc1O)=CC2=O [Compound 3h, (1S,5R)-4-(2-hydroxystyryl)-6,6-dimethylbicyclo[3.1.1]hept-3-en-2-one] |  |  |  | 4.64 ± 0.60 | 98.77 ± 2.53 | 2.20 ± 0.06
COc1ccc(C=CC2=CC(=O)[C@H]3C[C@@H]2C3(C)C)c(O)c1 [Compound 3i, (1S,5R)-4-(2-hydroxy-4-methoxystyryl)-6,6-dimethylbicyclo[3.1.1]hept-3-en-2-one] |  |  | significantly reduced NMDA-induced neuronal injury | 51.21 ± 3.83 | 136.87 ± 3.24 | 3.05 ± 0.07
CC1(C)[C@@H]2C[C@H]1C(C=Cc1ccccc1)=CC2=O [Compound 4a, (1S,5R)-6,6-dimethyl-4-styrylbicyclo[3.1.1]hept-3-en-2-one] |  |  |  |  | 27.73 ± 0.74 | 0.61 ± 0.01
CC1(C)[C@@H]2C[C@H]1C(C=Cc1ccc(F)cc1)=CC2=O [Compound 4b, (1S,5R)-4-(4-fluorostyryl)-6,6-dimethylbicyclo[3.1.1]hept-3-en-2-one] |  |  |  |  | 26.15 ± 1.26 | 0.62 ± 0.02
COc1ccc(C=CC2=CC(=O)[C@H]3C[C@@H]2C3(C)C)cc1 [Compound 4c, (1S,5R)-4-(4-methoxystyryl)-6,6-dimethylbicyclo[3.1.1]hept-3-en-2-one] |  |  |  |  | 38.06 ± 2.00 | 0.79 ± 0.01
CC1(C)[C@@H]2C[C@H]1C(C=Cc1ccc(-c3ccccc3)cc1)=CC2=O [Compound 4d, (1S,5R)-4-(2-(biphenyl-4-yl)vinyl)-6,6-dimethylbicyclo[3.1.1]hept-3-en-2-one] |  |  |  |  | 26.75 ± 1.27 | 0.56 ± 0.01
COc1ccc(C=CC2=CC(=O)[C@H]3C[C@@H]2C3(C)C)cc1OC [Compound 4f, (1S,5R)-4-(3,4-dimethoxystyryl)-6,6-dimethylbicyclo[3.1.1]hept-3-en-2-one] |  |  |  |  | 39.35 ± 1.67 | 0.88 ± 0.04
COc1cc(C=CC2=CC(=O)[C@H]3C[C@@H]2C3(C)C)cc(OC)c1 [Compound 4g, (1S,5R)-4-(3,5-dimethoxystyryl)-6,6-dimethylbicyclo[3.1.1]hept-3-en-2-one] |  |  |  |  | 45.28 ± 0.62 | 1.01 ± 0.01
COc1ccc(OC)c(C=CC2=CC(=O)[C@H]3C[C@@H]2C3(C)C)c1 [Compound 4h, (1S,5R)-4-(2,5-dimethoxystyryl)-6,6-dimethylbicyclo[3.1.1]hept-3-en-2-one] |  |  |  |  | 32.44 ± 1.54 | 0.72 ± 0.03
COc1ccc(Br)cc1C=CC1=CC(=O)[C@H]2C[C@@H]1C2(C)C [Compound 4i, (1S,5R)-4-(5-bromo-2-methoxystyryl)-6,6-dimethylbicyclo[3.1.1]hept-3-en-2-one] |  |  |  |  | 32.96 ± 1.03 | 0.73 ± 0.02
CC1(C)[C@@H]2C[C@H]1C(/C=C/c1ccccn1)=CC2=O [Compound 5a, (1S,5R)-6,6-dimethyl-4-((E)-2-(pyridin-2-yl)vinyl)bicyclo[3.1.1]hept-3-en-2-one] |  |  | significantly reduced NMDA-induced neuronal injury |  | 23.51 ± 0.79 | 0.52 ± 0.02
CC1(C)[C@@H]2C[C@H]1C(/C=C/c1cccnc1)=CC2=O [Compound 5b, (1S,5R)-6,6-dimethyl-4-((E)-2-(pyridin-3-yl)vinyl)bicyclo[3.1.1]hept-3-en-2-one] |  |  |  |  | 22.93 ± 0.61 | 0.51 ± 0.01
CC1(C)[C@@H]2C[C@H]1C(/C=C/c1ccncc1)=CC2=O [Compound 5c] |  |  |  |  | 22.51 ± 0.34 | 0.50 ± 0.01
